Test results as given in patent US7138361B2, “Herbicidal heterocycles” (E. I. du Pont de Nemours and Company, priority 2000, dated 2006).

Experiments:
Type in all cases: in vivo
[1] = tested on: Surinam grass (Brachiaria decumbens); test: Test B postemergence
Method in brief: (§1)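 Visual injury scores, 0 = no effect to 100 = complete control, assigned against controls after 13 to 15 days in the greenhouse. Compounds formulated in non-phytotoxic solvent plus surfactant and applied to soil after planting (pre) or onto foliage of 1- to 4-leaf plants (post).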

[2] = tested on: barnyardgrass (Echinochloa crus-galli); test: Test B postemergence
Method in brief: as §1

[3] = tested on: blackgrass (Alopecurus myosuroides); test: Test B postemergence
Method in brief: as §1

[4] = tested on: cocklebur (Xanthium strumarium); test: Test B postemergence
Method in brief: as §1

[5] = tested on: corn (Zea mays); test: Test B postemergence
Method in brief: as §1

[6] = tested on: crabgrass (Digitaria sanguinalis); test: Test B postemergence
Method in brief: as §1

[7] = tested on: giant foxtail (Setaria faberii); test: Test B postemergence
Method in brief: as §1

[8] = tested on: lambsquarters (Chenopodium album); test: Test B postemergence
Method in brief: as §1

[9] = tested on: morning glory (Ipomoea hederacea); test: Test B postemergence
Method in brief: as §1

[10] = tested on: pigweed (Amaranthus retroflexus); test: Test B postemergence
Method in brief: as §1

[11] = tested on: velvetleaf (Abutilon theophrasti); test: Test B postemergence
Method in brief: as §1

[12] = tested on: wheat (Triticum aestivum); test: Test B postemergence
Method in brief: as §1

[13] = tested on: wild oat (Avena fatua); test: Test B postemergence
Method in brief: as §1

[14] = tested on: Surinam grass (Brachiaria decumbens); test: Test B preemergence
Method in brief: as §1

[15] = tested on: barnyardgrass (Echinochloa crus-galli); test: Test B preemergence
Method in brief: as §1

[16] = tested on: cocklebur (Xanthium strumarium); test: Test B preemergence
Method in brief: as §1

[17] = tested on: corn (Zea mays); test: Test B preemergence
Method in brief: as §1

[18] = tested on: crabgrass (Digitaria sanguinalis); test: Test B preemergence
Method in brief: as §1

[19] = tested on: giant foxtail (Setaria faberii); test: Test B preemergence
Method in brief: as §1

[20] = tested on: lambsquarters (Chenopodium album); test: Test B preemergence
Method in brief: as §1

[21] = tested on: morning glory (Ipomoea hederacea); test: Test B preemergence
Method in brief: as §1

[22] = tested on: pigweed (Amaranthus retroflexus); test: Test B preemergence
Method in brief: as §1

[23] = tested on: rice (Oryza saliva); test: Test B preemergence
Method in brief: as §1

[24] = tested on: velvetleaf (Abutilon theophrasti); test: Test B preemergence
Method in brief: as §1

[25] = tested on: barnyardgrass (Echinochloa crus-galli); test: Test C flooded paddy test; conditions: for Barnyardgrass plant response rating: Flooded Paddy, scale 0 to 100, 0 no effect, 100 complete control; for Plant response rating, Barnyardgrass: flooded paddy test, scale 0 to 100 (0 no effect, 100 complete control)
Method in brief: (§2)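 2-leaf-stage plants, flooded paddy; treated; greenhouse 12–14 days; compared with controls by eye; rated 0–100 (0 none, 100 complete control).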

[26] = tested on: duck salad (Heteranthera limosa); test: Test C flooded paddy test; conditions: for Ducksalad plant response rating: Flooded Paddy, scale 0 to 100, 0 no effect, 100 complete control; for Plant response rating, Ducksalad: flooded paddy test, scale 0 to 100 (0 no effect, 100 complete control)
Method in brief: as §2

[27] = tested on: rice (Oryza saliva); test: Test C flooded paddy test; conditions: for Rice plant response rating: Flooded Paddy, scale 0 to 100, 0 no effect, 100 complete control; for Plant response rating, Rice: flooded paddy test, scale 0 to 100 (0 no effect, 100 complete control)
Method in brief: as §2

[28] = tested on: smallflower flatsedge (Cyperus difformis); test: Test C flooded paddy test; conditions: for Flatsedge plant response rating: Flooded Paddy, scale 0 to 100, 0 no effect, 100 complete control; for Plant response rating, Flatsedge: flooded paddy test, scale 0 to 100 (0 no effect, 100 complete control)
Method in brief: as §2

[29] = Rate 125 g/ha, scale 0 to 100, 0 no effect, 100 complete control
[30] = Rate 500 g/ha, scale 0 to 100, 0 is no effect, 100 is complete control, 13 to 15 days
[31] = Preemergence, Rate 500 g/ha, scale 0 to 100, 0 no effect, 100 complete control
[32] = preemergence, Rate 125 g/ha, scale of 0 to 100 where 0 is no effect and 100 is complete control, 13 to 15 days

CCCCC(CCCC)c1ccn(C2SCN(c3cccc(OC(F)(F)F)c3)C2=O)n1 (stereo not drawn) [Compound 115]
Plant response rating, Surinam grass [1, 29]: 20
Plant response rating, Surinam grass [1, 30]: 100
Plant response rating, Barnyardgrass [2, 29]: 0
Plant response rating, Barnyardgrass [2, 30]: 0
Plant response rating, Blackgrass [3, 29]: 0
Plant response rating, Blackgrass [3, 30]: 0
Plant response rating, Cocklebur [4, 29]: 20
Plant response rating, Cocklebur [4, 30]: 70
Plant response rating, Corn [5, 29]: 20
Plant response rating, Corn [5, 30]: 20
Plant response rating, Crabgrass [6, 29]: 20
Plant response rating, Crabgrass [6, 30]: 30
Plant response rating, Foxtail, Giant [7, 29]: 0
Plant response rating, Foxtail, Giant [7, 30]: 0
Plant response rating, Lambsquarters [8, 29]: 0
Plant response rating, Lambsquarters [8, 30]: 0
Plant response rating, Morningglory [9, 29]: 0
Plant response rating, Morningglory [9, 30]: 0
Plant response rating, Pigweed [10, 29]: 50
Plant response rating, Pigweed [10, 30]: 60
Plant response rating, Velvetleaf [11, 29]: 0
Plant response rating, Velvetleaf [11, 30]: 0
Plant response rating, Wheat [12, 29]: 40
Plant response rating, Wheat [12, 30]: 50
Plant response rating, Wild Oat [13, 29]: 30
Plant response rating, Wild Oat [13, 30]: 60
Plant response rating, Surinam grass [14, 31]: 0
Plant response rating, Surinam grass [14, 32]: 0
Plant response rating, Barnyardgrass [15, 31]: 0
Plant response rating, Barnyardgrass [15, 32]: 0
Plant response rating, Cocklebur [16, 31]: 0
Plant response rating, Cocklebur [16, 32]: 0
Plant response rating, Corn [17, 31]: 0
Plant response rating, Corn [17, 32]: 0
Plant response rating, Crabgrass [18, 31]: 0
Plant response rating, Crabgrass [18, 32]: 0
Plant response rating, Foxtail, Giant [19, 31]: 0
Plant response rating, Foxtail, Giant [19, 32]: 0
Plant response rating, Lambsquarters [20, 31]: 0
Plant response rating, Lambsquarters [20, 32]: 0
Plant response rating, Morningglory [21, 31]: 0
Plant response rating, Morningglory [21, 32]: 0
Plant response rating, Pigweed [22, 31]: 0
Plant response rating, Pigweed [22, 32]: 0
Plant response rating, Rice [23, 31]: 0
Plant response rating, Rice [23, 32]: 0
Plant response rating, Velvetleaf [24, 31]: 0
Plant response rating, Velvetleaf [24, 32]: 0
Barnyardgrass plant response rating ([25]; Rate 250 g/ha): 0
Barnyardgrass plant response rating ([25]; Rate 500 g/ha): 0
Plant response rating, Barnyardgrass ([25]; Rate 62 g/ha): 0
Plant response rating, Barnyardgrass ([25]; Rate 125 g/ha): 0
Ducksalad plant response rating ([26]; Rate 250 g/ha): 0
Ducksalad plant response rating ([26]; Rate 500 g/ha): 0
Plant response rating, Ducksalad ([26]; Rate 62 g/ha): 0
Plant response rating, Ducksalad ([26]; Rate 125 g/ha): 0
Rice plant response rating ([27]; Rate 250 g/ha): 0
Rice plant response rating ([27]; Rate 500 g/ha): 0
Plant response rating, Rice ([27]; Rate 62 g/ha): 0
Plant response rating, Rice ([27]; Rate 125 g/ha): 0
Flatsedge plant response rating ([28]; Rate 250 g/ha): 0
Flatsedge plant response rating ([28]; Rate 500 g/ha): 0
Plant response rating, Flatsedge ([28]; Rate 62 g/ha): 0
Plant response rating, Flatsedge ([28]; Rate 125 g/ha): 0

CCCCC(CCCC)c1ccn(C2SCN(c3cccc(C(F)(F)F)c3)C2=O)n1 (stereo not drawn) [Compound 116]
Plant response rating, Surinam grass [1, 29]: 0
Plant response rating, Surinam grass [1, 30]: 20
Plant response rating, Barnyardgrass [2, 29]: 0
Plant response rating, Barnyardgrass [2, 30]: 20
Plant response rating, Blackgrass [3, 29]: 0
Plant response rating, Blackgrass [3, 30]: 60
Plant response rating, Cocklebur [4, 29]: 30
Plant response rating, Cocklebur [4, 30]: 50
Plant response rating, Corn [5, 29]: 20
Plant response rating, Corn [5, 30]: 20
Plant response rating, Crabgrass [6, 29]: 20
Plant response rating, Crabgrass [6, 30]: 40
Plant response rating, Foxtail, Giant [7, 29]: 0
Plant response rating, Foxtail, Giant [7, 30]: 0
Plant response rating, Lambsquarters [8, 29]: 70
Plant response rating, Lambsquarters [8, 30]: 90
Plant response rating, Morningglory [9, 29]: 30
Plant response rating, Morningglory [9, 30]: 30
Plant response rating, Pigweed [10, 29]: 50
Plant response rating, Pigweed [10, 30]: 70
Plant response rating, Velvetleaf [11, 29]: 20
Plant response rating, Velvetleaf [11, 30]: 30
Plant response rating, Wheat [12, 29]: 20
Plant response rating, Wheat [12, 30]: 20
Plant response rating, Wild Oat [13, 29]: 30
Plant response rating, Wild Oat [13, 30]: 50
Plant response rating, Surinam grass [14, 31]: 0
Plant response rating, Surinam grass [14, 32]: 0
Plant response rating, Barnyardgrass [15, 31]: 0
Plant response rating, Barnyardgrass [15, 32]: 0
Plant response rating, Cocklebur [16, 31]: 0
Plant response rating, Cocklebur [16, 32]: 0
Plant response rating, Corn [17, 31]: 0
Plant response rating, Corn [17, 32]: 0
Plant response rating, Crabgrass [18, 31]: 0
Plant response rating, Crabgrass [18, 32]: 0
Plant response rating, Foxtail, Giant [19, 31]: 0
Plant response rating, Foxtail, Giant [19, 32]: 0
Plant response rating, Lambsquarters [20, 31]: 0
Plant response rating, Lambsquarters [20, 32]: 0
Plant response rating, Morningglory [21, 31]: 0
Plant response rating, Morningglory [21, 32]: 0
Plant response rating, Pigweed [22, 31]: 0
Plant response rating, Pigweed [22, 32]: 0
Plant response rating, Rice [23, 31]: 0
Plant response rating, Rice [23, 32]: 0
Plant response rating, Velvetleaf [24, 31]: 0
Plant response rating, Velvetleaf [24, 32]: 0
Barnyardgrass plant response rating ([25]; Rate 250 g/ha): 0
Barnyardgrass plant response rating ([25]; Rate 500 g/ha): 0
Plant response rating, Barnyardgrass ([25]; Rate 62 g/ha): 0
Plant response rating, Barnyardgrass ([25]; Rate 125 g/ha): 0
Ducksalad plant response rating ([26]; Rate 250 g/ha): 0
Ducksalad plant response rating ([26]; Rate 500 g/ha): 0
Plant response rating, Ducksalad ([26]; Rate 62 g/ha): 0
Plant response rating, Ducksalad ([26]; Rate 125 g/ha): 0
Rice plant response rating ([27]; Rate 250 g/ha): 0
Rice plant response rating ([27]; Rate 500 g/ha): 0
Plant response rating, Rice ([27]; Rate 62 g/ha): 0
Plant response rating, Rice ([27]; Rate 125 g/ha): 0
Flatsedge plant response rating ([28]; Rate 250 g/ha): 0
Flatsedge plant response rating ([28]; Rate 500 g/ha): 0
Plant response rating, Flatsedge ([28]; Rate 62 g/ha): 0
Plant response rating, Flatsedge ([28]; Rate 125 g/ha): 0

CCCOC(=O)c1cccc(N2CCC(n3ccc(C(C)(C)C)n3)C2=O)c1 (stereo not drawn) [Compound 123]
Plant response rating, Surinam grass [1, 29]: 0
Plant response rating, Surinam grass [1, 30]: 0
Plant response rating, Barnyardgrass [2, 29]: 0
Plant response rating, Barnyardgrass [2, 30]: 0
Plant response rating, Blackgrass [3, 30]: 0
Plant response rating, Cocklebur [4, 29]: 30
Plant response rating, Cocklebur [4, 30]: 80
Plant response rating, Corn [5, 29]: 0
Plant response rating, Corn [5, 30]: 0
Plant response rating, Crabgrass [6, 29]: 0
Plant response rating, Foxtail, Giant [7, 29]: 0
Plant response rating, Lambsquarters [8, 29]: 0
Plant response rating, Morningglory [9, 29]: 0
Plant response rating, Pigweed [10, 29]: 0
Plant response rating, Velvetleaf [11, 29]: 0
Plant response rating, Wheat [12, 29]: 0
Plant response rating, Wild Oat [13, 29]: 0
Plant response rating, Surinam grass [14, 31]: 0
Plant response rating, Surinam grass [14, 32]: 0
Plant response rating, Barnyardgrass [15, 31]: 0
Plant response rating, Barnyardgrass [15, 32]: 0
Plant response rating, Cocklebur [16, 31]: 0
Plant response rating, Cocklebur [16, 32]: 0
Plant response rating, Corn [17, 31]: 0
Plant response rating, Corn [17, 32]: 0
Plant response rating, Crabgrass [18, 31]: 60
Plant response rating, Crabgrass [18, 32]: 0
Plant response rating, Foxtail, Giant [19, 31]: 0
Plant response rating, Foxtail, Giant [19, 32]: 0
Plant response rating, Lambsquarters [20, 31]: 60
Plant response rating, Lambsquarters [20, 32]: 0
Plant response rating, Morningglory [21, 31]: 0
Plant response rating, Morningglory [21, 32]: 0
Plant response rating, Pigweed [22, 31]: 70
Plant response rating, Pigweed [22, 32]: 0
Plant response rating, Rice [23, 31]: 0
Plant response rating, Rice [23, 32]: 0
Plant response rating, Velvetleaf [24, 31]: 0
Plant response rating, Velvetleaf [24, 32]: 0
Barnyardgrass plant response rating ([25]; Rate 250 g/ha): 0
Barnyardgrass plant response rating ([25]; Rate 500 g/ha): 0
Plant response rating, Barnyardgrass ([25]; Rate 62 g/ha): 0
Plant response rating, Barnyardgrass ([25]; Rate 125 g/ha): 0
Ducksalad plant response rating ([26]; Rate 250 g/ha): 60
Ducksalad plant response rating ([26]; Rate 500 g/ha): 70
Plant response rating, Ducksalad ([26]; Rate 62 g/ha): 20
Plant response rating, Ducksalad ([26]; Rate 125 g/ha): 20
Rice plant response rating ([27]; Rate 250 g/ha): 0
Rice plant response rating ([27]; Rate 500 g/ha): 0
Plant response rating, Rice ([27]; Rate 62 g/ha): 0
Plant response rating, Rice ([27]; Rate 125 g/ha): 0
Flatsedge plant response rating ([28]; Rate 250 g/ha): 50
Flatsedge plant response rating ([28]; Rate 500 g/ha): 90
Plant response rating, Flatsedge ([28]; Rate 62 g/ha): 30
Plant response rating, Flatsedge ([28]; Rate 125 g/ha): 30
